{
  "source": "patent EP2832347B1",
  "about": "“Method for identifying patchouli odorant materials” (Takasago International Corporation, priority 2013, dated 2015)",
  "key": {"OR11A1": {"molecular_target": "T1, OR11A1 (Homo sapiens, UniProt Q9GZK7)", "T1 construct": "expressed in transfected cells; host or cells: HEKOlf (HEK293 stably expressing human Galpha-olf and bovine CNGA2)", "T1 sequence (Q9GZK7 1-315)": "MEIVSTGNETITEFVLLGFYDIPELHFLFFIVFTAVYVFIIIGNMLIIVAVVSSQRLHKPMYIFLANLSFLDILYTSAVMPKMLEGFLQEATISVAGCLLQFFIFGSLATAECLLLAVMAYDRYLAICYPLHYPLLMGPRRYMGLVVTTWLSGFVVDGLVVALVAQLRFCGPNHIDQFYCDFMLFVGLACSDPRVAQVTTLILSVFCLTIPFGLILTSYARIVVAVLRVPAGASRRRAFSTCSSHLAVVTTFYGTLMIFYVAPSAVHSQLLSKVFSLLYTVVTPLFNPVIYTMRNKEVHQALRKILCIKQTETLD", "assay": "CRE-luciferase reporter assay in HEKOlf cells transiently transfected with OR11A1", "assay_type": "cell-based", "experimental": "(§1) The experiments were performed using a HEK293 cell line (deposited at the ATCC under accession n° CRL-1573) stably expressing the Gαolf G-protein and the cyclic nucleotide gated ion channel A2 subunit (CNGA2) (herein called HEKOlf). As described by Shirokova et al., 2005, the human Gαolf cDNA was cloned into the mammalian expression vector pPuro and cDNA for the bovine cyclic nucleotide gated ion channel A2 (CNGA2) subunit was cloned into the mammalian expression vector pcDNA3. Both constructs were transfected using Lipofectamine2000 (Invitrogen) following the manufacturer's instructions. Cellular clones stably expressing Gαolf and CNGA2 were obtained by antibiotic selection with 0.5µg/ml Puromycin and 200µg/ml Geneticin.\nAll odorants were stored in the dark at 4°C upon delivery. They were prepared at 100mM stock solutions using DMSO as a solvent and stored at -20°C. On the day of the experiment the different stock solutions were directly diluted in the assay buffer (Tyrode's buffer) having the following composition: 5mM KCI, 130mM NaCl, 2mM CaCl2, 5mM NaHCO3, 1mM MgCl2, 20mM HEPES, pH7.4.\n(§2) All transient transfections were performed with Lipofectamine 2000 (Invitrogen) according to the manufacturer's protocol. 10µl Lipofectamine 2000 were diluted in 500 µl DMEM and incubated for 5 minutes at room temperature. At the same time, 3µg of plasmid DNA were diluted in 500µl DMEM and added to the Lipofectamine 2000 mix to obtain a final volume of 1000µl. After incubation for a further 30 minutes at room temperature, the DNA-Lipofectamine complex was added to 1000µl of a cell suspension containing 1.600.000 cells/ml. Subsequently, 25µl per well of the complete mixture were seeded in black 384 well polystyrene assay plates. 25µl DMEM containing 20% FBS were added to each well 3 hours post-transfection.\n(§3) The cDNAs for all olfactory receptors and an empty control vector were co-transfected with pGL4.29 (Promega). The pGL4.29 vector contains a cyclic adenosine monophosphate (cAMP) response element (CRE) that drives the transcription of the luciferase reporter gene luc2P (Photinus pyralis). luc2P is a synthetically-derived luciferase sequence with humanized codon optimization that is designed for high expression and reduced anomalous transcription.\nIn this assay, the interaction of an odorant with its cognate olfactory receptor leads to the activation of the human Gαolf G-protein. Gαolf is a stimulatory G-protein (Gαs) and activates adenylate cyclase, which converts adenosine triphosphate (ATP) into cAMP. Therefore, the activity of the transcribed luciferase can be used as an indication of olfactory receptor activation. 24 hours post-transfection the medium was removed from the transfected cells and 30 µl Tyrode's buffer containing the diluted odorants were added and incubated for 6 hours at 37°C. The cells were then transferred into an automated fluorometric imaging plate reader (FLIPR^TETRA, Molecular Devices). Subsequently, 25µl of a mixture composed of Triton X-100 and luciferin (1:1) were added. The addition of this mixture led to cell lyses and allowed interaction of the luciferase with its substrate luciferin resulting in a detectable emission of light.\nThe data obtained from different well replicates were analyzed with Excel, ScreenWorks, and SigmaPlot 10. The responses of each receptor to the odorants were divided by the mean responses of the receptor towards Tyrode's buffer (fold of change FOC1). The specificity of FOC1 was checked by comparing with a second FOC (FOC2) obtained by stimulating a control sample, consisting in an empty expression vector, with the same odorants and Tyrode's buffer. The mean and standard deviation of the resulting fold of change values were calculated and plotted in vertical bar charts or concentration-response curves fitted by the SigmaPlot 10 software."}, "OR11L1": {"molecular_target": "T2, OR11L1 (Homo sapiens, UniProt Q8NGX0)", "T2 construct": "expressed in transfected cells; host or cells: HEKOlf (HEK293 stably expressing human Galpha-olf and bovine CNGA2)", "T2 sequence (Q8NGX0 1-322)": "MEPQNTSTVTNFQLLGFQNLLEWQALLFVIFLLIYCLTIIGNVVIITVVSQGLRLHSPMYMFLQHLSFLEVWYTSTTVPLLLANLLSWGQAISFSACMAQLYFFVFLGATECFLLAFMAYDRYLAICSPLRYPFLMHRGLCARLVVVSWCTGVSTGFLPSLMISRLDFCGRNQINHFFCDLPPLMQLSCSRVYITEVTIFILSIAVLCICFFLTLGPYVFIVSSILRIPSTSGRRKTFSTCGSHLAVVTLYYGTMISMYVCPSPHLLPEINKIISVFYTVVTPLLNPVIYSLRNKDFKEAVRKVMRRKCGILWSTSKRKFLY", "assay": "CRE-luciferase reporter assay in HEKOlf cells transiently transfected with OR11L1", "assay_type": "cell-based", "settings": "Example 3; 10/30/100 µM", "experimental": "as §1\nAll odorants were stored in the dark at 4°C upon delivery. […]\nIn this assay, the interaction of an odorant with its cognate olfactory receptor leads to the activation of the human Gαolf G-protein. […] The cells were then transferred into an automated fluorometric imaging plate reader (FLIPR^TETRA, Molecular Devices). […]\n(§4) The data obtained from different well replicates were analyzed with Excel, ScreenWorks, and SigmaPlot 10. […] The mean and standard deviation of the resulting fold of change values were calculated and plotted in vertical bar charts or concentration-response curves fitted by the SigmaPlot 10 software. […]"}, "[1]": {"system": "seven other OR11A1-related olfactory receptors", "assay": "CRE-luciferase reporter assay on OR11A1 related receptors", "assay_type": "cell-based, human", "settings": "10/30/100 µM", "experimental": "as §1, §2, §3\nIn this assay, the interaction of an odorant with its cognate olfactory receptor leads to the activation of the human Gαolf G-protein. Gαolf is a stimulatory G-protein (Gαs) and activates adenylate cyclase, which converts adenosine triphosphate (ATP) into cAMP. Therefore, the activity of the transcribed luciferase can be used as an indication of olfactory receptor activation. […] The cells were then transferred into an automated fluorometric imaging plate reader (FLIPR^TETRA, Molecular Devices). […]\nas §4"}},
  "data": [
    {"smiles": "C[C@H]1CC[C@@]2(O)C(C)(C)[C@@H]3CC[C@@]2(C)[C@H]1C3", "note": "[Patchouli alcohol]", "values": [
      {"measurement": "activation of OR11A1", "setting": "OR11A1; Example 3, 10/30/100 µM", "result": "strongly activated"},
      {"measurement": "EC50", "setting": "OR11A1; Example 4, Table 5, 0.03-100 µM tested", "result": "12.1 ± 1.7", "unit": "µM"},
      {"measurement": "Potency and efficacy on OR11A1 (comparison between odorants)", "setting": "OR11A1; Example 4, 0.1 to 100 µM (Figure 6)", "result": "comparable"},
      {"measurement": "activation of OR11A1", "setting": "OR11A1; Example 4, 3, 10 and 30 µM (Figure 5)", "result": "activated"},
      {"measurement": "response in cells transfected with OR11L1", "setting": "OR11L1", "result": "unable to elicit a detectable response"},
      {"measurement": "fold of change", "setting": "[1]; Example 3, figure 4", "result": "around 1"},
      {"measurement": "response of seven other OR11A1-related olfactory receptors", "setting": "[1]; Example 3", "result": "none of the seven other OR11A1-related olfactory receptors responded"}
    ]}
  ]
}
